Data published in patent US20240091227A1, “Use Of 2-Phenyl-6-(1H-Imidazol-1-YL) Quinazoline For Treating Neurodegenerative Diseases, Preferably Alzheimer's Disease” (ROTTAPHARM BIOTECH S.R.L., priority 2019, published 2024).
Entries after “also recorded” stand apart in the source; their conditions may differ.

Key:
COX-2 = COX-2 gene expression in IL-1β-stimulated U373 MG astrocytoma cells (RT-PCR); assay type: cell-based, human; conditions: IL-1β 2 ng/ml
Procedure: (§1) A model of astrocytes, the human glioblastoma astrocytoma cell line U373 MG (Uppsala), was used for these experiments. Adherent cells were grown in DMEM medium supplemented with 10% FBS at 37° C. with CO2. 72 hours after plating, cells were treated for 1 h with 2-phenyl-6-(1H-imidazol-1-yl)quinazoline (CR4056) (10 μM) prepared according to EP2066653 and then stimulated with the pro-inflammatory cytokine IL-1β (2 ng/mL) for further 6 and 24 h.
(§2) At the end of incubation period, total RNA was obtained and retro-transcribed using the High-Capacity cDNA Reverse Transcription Kit (Thermo Fisher Scientific). The levels of expression of COX-2, IL-1β, IL-6 and TNFα were evaluated by RT-PCR analysis, performed using the Applied Biosystems 7500 Fast Real-Time PCR System using specific TaqMan assays and, as an endogenous control, the 18S Pre-Developed TaqMan® Assay (Thermo Fisher Scientific). The data analysis, with normalisation on 18S amplified values, was according to Thermo Fisher Scientific specific instructions for gene expression relative quantification. All individual data were the result of at least three different measurements for each sample.
(§3) Percentage of gene expression inhibition observed in U373 cells stimulated with IL-1β 2 ng/ml and exposed to 10 μM CR4056 for the indicated time.

rats [1] = assay: Irwin test (neurobehavioral changes); assay type: in vivo, rat; conditions: suprapharmacological concentrations
Text: (§4) These findings indicate that CR4056 could be a safe drug for treating neurodegenerative diseases, and, in particular, Alzheimer disease.

Transgenic 5XFAD mice = assay: Novel object recognition in transgenic 5XFAD mice model of Alzheimer's disease; assay type: in vivo, mouse; conditions: 30 mg/kg orally once a day for 10 days
Text: FIG. 6 reports the results of Novel Object Recognition test in transgenic 5XFAD mice model of Alzheimer disease. (Obj C=new object) *p<0.0001, unpaired t Student test.
Transgenic 5XFAD mice, overexpressing the human amyloid precursor protein (APP695) with Swedish (K670N/M671L), Florida (I716V) and London (V717I) familial Alzheimer's disease (FAD) mutations, as well as human Presenilin1 (PS1) with M146L and L286V FAD mutations were used as Alzheimer's disease model. 6 months old female transgenic 5XFAD mice and wild-type controls (WT) were treated orally (gavage) with 30 mg/kg of CR4056 or vehicle once a day for a period of 10 days (n=4 WT/Vehicle, 8 WT/CR4056, 2 5XFAD/Vehicle, and 3 5XFAD/CR4056). Following repeated treatments, hippocampal-dependent memory was tested using the novel object recognition task. The object recognition test measures working and spatial memory. In the training phase, animals were placed in the arena with objects constructed from large plastic bricks. In the testing phase, one object was replaced by a novel object. Animals were returned in the arena and allowed to explore. Exploration of objects was observed and recorded. Mice should recognize that a new object has been placed and therefore explore this object for longer time.

IL-6 = IL-6 gene expression in IL-1β-stimulated U373 MG astrocytoma cells (RT-PCR); assay type: cell-based, human; conditions: IL-1β 2 ng/ml
Procedure: as §1, §2, §3

rats [2] = assay: Rotarod and open field tests (motor coordination and locomotor activity); assay type: in vivo, rat; conditions: suprapharmacological concentrations
Text: as §4

[3] = tested on: Iba1-positive microglial cells; assay: Spinal microglia activation (Iba1 immunofluorescence) in CFA inflammatory model; assay type: in vivo, rat; conditions: rats, 6 mg/kg os single administration 72 hours post-CFA, evaluated after 90 minutes
Procedure: FIG. 2 reports the results of spinal microglia activation at 72 hours following CFA injection. The quantification of microglia activation in ipsilateral L5 SC dorsal horn was determined as the number of Iba1-positive microglia, displaying a clearly swollen cell body with reduced processes, within the analyzed selected frame of the superficial laminae. Data represent the mean of 5 animals/group. Ordinary one way ANOVA followed by Dunnet's multiple comparison (**p<0.05).
Microglial cells activation was evaluated by immunofluorescence staining, measuring the expression of ionized calcium-binding adapter molecule 1 (Iba-1) in ipsilateral L5 spinal cord in complete Freund's adjuvant (CFA) model. […]
CR4056 (6 mg/kg, os) was administered 72 hours post-CFA and after 90 minutes animals were deeply anesthetized with an overdose of urethane (1.5 g·kg−1, i.p.) and then transcardially perfused with 250 mL 0.9% saline containing 1% heparin (5000 UI·mL−1), followed by 500 mL 10% formalin (i.e., 4% paraformaldehyde, Bio-Optica Spa, Milan, Italy). […] For each section, a representative image of both the ipsilateral and the contralateral dorsal horn (laminae I-III) of the L5 spinal cord was captured at 20× magnification, using consistent exposure times across all sections, and then analysed. […] For each animal (n=5 per group) 6 non-consecutive sections were analysed and results were averaged.

c1ccc(-c2ncc3cc(-n4ccnc4)ccc3n2)cc1 [CR4056, 2-phenyl-6-(1H-imidazol-1-yl)quinazoline]
Percentage of gene expression inhibition, COX-2 (COX-2; 10 μM CR4056, 6 h): 45%
Percentage of gene expression inhibition, COX-2 (COX-2; 10 μM CR4056, 24 h): 48%
Neurobehavioral changes (Irwin test) (rats [1]): neither neurobehavioral changes
Working and spatial memory, novel object recognition (Transgenic 5XFAD mice): significant improvement in the working and spatial memory
Percentage of gene expression inhibition, IL-6 (IL-6; 10 μM CR4056, 6 h): not yet modulated
Percentage of gene expression inhibition, IL-6 (IL-6; 10 μM CR4056, 24 h): 39%
Impairment of motor coordination and locomotor activity (rotarod and open field tests) (rats [2]): nor impairment of motor coordination and locomotor activity
Microglia activation in ipsilateral L5 spinal cord dorsal horn (Iba1-positive activated microglia) [3]: completely restored the basal conditions of microglia; also recorded: significantly reduced microglia activation
